Data taken from article PMC5733030, “Characterizing Isozymes of Chlorite Dismutase for Water Treatment” (Frontiers in Microbiology, 2017).

Test system: T1, MbCld
T1 construct: gene cld; native, soluble protein fraction of chlorate-grown cells; not purified
Test: chloride ion selective electrode, initial rates, Michaelis-Menten fit
Assay type: biochemical, Magnetospirillum bellicus
Details: 10 mM phosphate buffer pH 7.0, 21–23°C; soluble protein fraction
From the text: chloride ion selective electrode, initial rates, Michaelis-Menten fit on MbCld

[O-][Cl+]O [chlorite] was tested, and the Km was 360 ± 210 µM.
